Consider 23 compounds from PubChem BioAssay AID330 (DTP/NCI, 2004).

For the experiment, the system named is P388 leukemia ip, CD2F1 mice, survival T/C. The experiment can be described thus: NCI In Vivo Anticancer Drug Screen. Data for tumor model P388 Leukemia (intraperitoneal) in CD2F1 (CDF1) mice. The conditions noted are these: endpoint: median survival time, higher = longer survival. The gist of the method: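 Mice carrying the transplanted tumor received test compound or vehicle. Survival was recorded in each group, and the value is the treated-group measurement divided by that of the vehicle-treated control group.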

[1] abbreviates: dose: 50.0 mg/kg/injection, schedule: Q01DX009 (ip), vehicle: Klucel (hydroxypropylcellulose) (HPC).
Setting [2] is: dose: 100.0 mg/kg/injection, schedule: Q01DX009 (ip), vehicle: Klucel (hydroxypropylcellulose) (HPC).
Where [3] appears, read: dose: 200.0 mg/kg/injection, schedule: Q01DX009 (ip), vehicle: Klucel (hydroxypropylcellulose) (HPC).
[4] abbreviates: dose: 400.0 mg/kg/injection, schedule: Q01DX009 (ip), vehicle: Klucel (hydroxypropylcellulose) (HPC).
[5] abbreviates: dose: 50.0 mg/kg/injection, schedule: Q01DX009 (ip), vehicle: saline with Tween-80.
[6] abbreviates: dose: 100.0 mg/kg/injection, schedule: Q01DX009 (ip), vehicle: saline with Tween-80.
The mark [7] stands for this setting: dose: 200.0 mg/kg/injection, schedule: Q01DX009 (ip), vehicle: saline with Tween-80.
Where [8] appears, read: dose: 25.0 mg/kg/injection, schedule: Q01DX009 (ip), vehicle: Klucel (hydroxypropylcellulose) (HPC).
Setting [9] is: dose: 100.0 mg/kg/injection, schedule: Q04DX003 (ip), vehicle: Klucel (hydroxypropylcellulose) (HPC).
[10] abbreviates: dose: 200.0 mg/kg/injection, schedule: Q04DX003 (ip), vehicle: Klucel (hydroxypropylcellulose) (HPC).
Setting [11] is: dose: 400.0 mg/kg/injection, schedule: Q04DX003 (ip), vehicle: Klucel (hydroxypropylcellulose) (HPC).
The mark [12] stands for this setting: dose: 50.0 mg/kg/injection, schedule: Q01DX005 (ip), vehicle: saline with Tween-80.
[13] abbreviates: dose: 100.0 mg/kg/injection, schedule: Q01DX005 (ip), vehicle: saline with Tween-80.
[14] abbreviates: dose: 200.0 mg/kg/injection, schedule: Q01DX005 (ip), vehicle: saline with Tween-80.
Setting [15] is: dose: 60.0 mg/kg/injection, schedule: Q01DX005 (ip), vehicle: saline with Tween-80.
Setting [16] is: dose: 120.0 mg/kg/injection, schedule: Q01DX005 (ip), vehicle: saline with Tween-80.
Setting [17] is: dose: 240.0 mg/kg/injection, schedule: Q01DX005 (ip), vehicle: saline with Tween-80.
Setting [18] is: dose: 25.0 mg/kg/injection, schedule: Q01DX009 (ip), vehicle: saline with Tween-80.

Several values for one entry are separate records, joined by “and”; a condition that tells them apart may be missing. Equal entries are not always repeated. Inconclusive results and toxic doses are left out.

On to `O=C1CCCCCCCCCCCCCCO1`, for which the T/C is, setting by setting: under setting [1], 97 % of control; under setting [2], 106 % of control; under setting [3], 102 % of control; under setting [4], 106 % of control.
Take `CC(C)=CC(=O)C1=C(O)C(=O)OC1`: the T/C runs as follows: under setting [5], 109 % of control; under setting [6], 108 % of control; under setting [7], 107 % of control.
Consider `COc1cccc2c1C(=O)c1c(O)c3c(c(O)c1C2=O)CC(O)(C(C)=O)CC3OC1OC(C)C(O)C(N)C1O` (configuration not stated), for which the T/C is, setting by setting: (dose: 3.13 mg/kg/injection, schedule: Q04DX003 (ip), vehicle: water) 91 % of control; (dose: 6.25 mg/kg/injection, schedule: Q04DX003 (ip), vehicle: water) 110 % of control; (dose: 12.5 mg/kg/injection, schedule: Q04DX003 (ip), vehicle: water) 99 % of control; (dose: 25.0 mg/kg/injection, schedule: Q04DX003 (ip), vehicle: water) 100 % of control; (dose: 50.0 mg/kg/injection, schedule: Q04DX003 (ip), vehicle: water) 103 % of control.
In the case of `COCN1C(=O)CN=C(c2ccccc2)c2cc(NO)ccc21`, the T/C was 105 % of control (dose: 12.5 mg/kg/injection, schedule: Q01DX009 (ip), vehicle: Klucel (hydroxypropylcellulose) (HPC)); 105 % of control under setting [8]; 100 % of control and 106 % of control under setting [1].
With `Cc1ccc(N=Nc2c(O)ccc3n[nH]nc23)cc1`, the T/C reads like this: under setting [1], 99 % of control; under setting [2], 101 % of control and 105 % of control; under setting [9], 100 % of control; under setting [3], 99 % of control and 109 % of control; under setting [10], 100 % of control; under setting [4], 100 % of control and 109 % of control. Moreover, under setting [11], the T/C is 93 % of control.
On to `C[CH2][Sn]([CH2]C)([CH2]C)[O]C(=O)CO`, for which the T/C runs as follows: (dose: 1.56 mg/kg/injection, schedule: Q01DX009 (ip), vehicle: saline with Tween-80) 115 % of control; (dose: 3.12 mg/kg/injection, schedule: Q01DX009 (ip), vehicle: saline with Tween-80) 122 % of control.
Take `O=C(CNC(=O)c1ccccc1)OC(C(=O)O)c1ccc(F)cc1` (configuration not stated): the T/C under setting [5] was 100 % of control, the T/C under setting [6] was 102 % of control and the T/C under setting [7] was 96 % of control.
`CN(/N=C1\C(=O)Nc2ccccc21)c1ccccc1`: the T/C reads like this: under setting [12], 95 % of control; under setting [13], 93 % of control; under setting [14], 88 % of control.
Regarding `CC12OC(=O)CC1C(c1ccccc1)(c1ccccc1)O2` (configuration not stated), the T/C runs as follows: under setting [15], 100 % of control; under setting [16], 94 % of control; under setting [17], 88 % of control.
Consider `CCC(c1ccc(CN(C)C)c(O)c1)C(CC)c1ccc(CN(C)C)c(O)c1` (configuration not stated), for which the T/C is 93 % of control under setting [15], 91 % of control under setting [16] and 102 % of control under setting [17].
With `CCOP(=O)(O)CP(=O)(O)OCC.CCOP(=O)(O)CP(=O)(O)OCC.[Cr]`, the T/C was 102 % of control (dose: 50.0 mg/kg/injection, schedule: Q04DX003 (ip), vehicle: saline with Tween-80); 98 % of control (dose: 100.0 mg/kg/injection, schedule: Q04DX003 (ip), vehicle: saline with Tween-80); 99 % of control (dose: 200.0 mg/kg/injection, schedule: Q04DX003 (ip), vehicle: saline with Tween-80).
Take `O=CNC(Cc1ccc(N(CCCl)CCCl)cc1)C(=O)O` (configuration not stated): the T/C by setting is: (dose: 6.25 mg/kg/injection, schedule: Q01DX009 (ip), vehicle: saline sonified) 159 % of control; (dose: 6.6 mg/kg/injection, schedule: Q04DX003 (ip), vehicle: saline) 170 % of control; (dose: 10.0 mg/kg/injection, schedule: Q04DX003 (ip), vehicle: saline) 160 % of control; (dose: 12.5 mg/kg/injection, schedule: Q01DX009 (ip), vehicle: saline sonified) 168 % of control; (dose: 15.0 mg/kg/injection, schedule: Q04DX003 (ip), vehicle: saline) 170 % of control; (dose: 25.0 mg/kg/injection, schedule: Q01DX009 (ip), vehicle: saline sonified) 213 % of control.
Take `CCCCOC(=O)c1c2nc3c(C(=O)OCCCC)ccc(C)c3oc-2c(C)c(=O)c1NC(C)=O`: the T/C runs as follows: under setting [9], 87 % of control; under setting [10], 90 % of control; under setting [11], 89 % of control.
As to `CCN(CC)Cc1cc2[nH]c3c4ccc(Cl)cc4ncc3c2cc1OC`, the T/C (dose: 6.25 mg/kg/injection, schedule: Q01DX009 (ip), vehicle: saline with Tween-80) was 101 % of control; the T/C (dose: 12.5 mg/kg/injection, schedule: Q01DX009 (ip), vehicle: saline with Tween-80) was 100 % of control; the T/C under setting [18] was 98 % of control; the T/C under setting [12] is 112 % of control; the T/C under setting [5] is 87 % of control and 94 % of control; the T/C under setting [13] is 102 % of control.
Turning to `C=Cn1c([N+](=O)[O-])cnc1/C=C/c1ccc(C#N)cc1`, the T/C is 94 % of control (dose: 100.0 mg/kg/injection, schedule: Q01DX001 (ip), vehicle: Klucel (hydroxypropylcellulose) (HPC)); 96 % of control (dose: 200.0 mg/kg/injection, schedule: Q01DX001 (ip), vehicle: Klucel (hydroxypropylcellulose) (HPC)); 93 % of control (dose: 400.0 mg/kg/injection, schedule: Q01DX001 (ip), vehicle: Klucel (hydroxypropylcellulose) (HPC)).
In the case of `O=C1COc2ccccc2C(=O)C1`, the T/C was 109 % of control (dose: 50.0 mg/kg/injection, schedule: Q01DX009 (ip), vehicle: saline); 101 % of control (dose: 100.0 mg/kg/injection, schedule: Q01DX009 (ip), vehicle: saline); 101 % of control (dose: 200.0 mg/kg/injection, schedule: Q01DX009 (ip), vehicle: saline).
As for `CCOC(=O)C1=C(C)NC(=O)NC1c1ccccc1` (configuration not stated), the T/C under setting [1] was 100 % of control, the T/C under setting [2] was 107 % of control, the T/C under setting [3] is 113 % of control and the T/C under setting [4] was 109 % of control.
`CN(C)C(C#CCO)c1ccccc1` (configuration not stated): the T/C reads like this: (dose: 60.0 mg/kg/injection, schedule: Q01DX005 (ip), vehicle: saline) 100 % of control; (dose: 120.0 mg/kg/injection, schedule: Q01DX005 (ip), vehicle: saline) 103 % of control; (dose: 240.0 mg/kg/injection, schedule: Q01DX005 (ip), vehicle: saline) 101 % of control.
With `CCN(CC)/C([Se])=N/N=C(\C)c1ccccn1`, the T/C by setting is: under setting [9], 108 % of control; under setting [10], 102 % of control.
As for `N#CSCc1ccc(Cl)cc1Cl`, the T/C under setting [5] was 109 % of control, the T/C under setting [6] is 113 % of control and the T/C under setting [7] is 113 % of control.
As to `O=C1CN=C(c2ccc[nH]2)c2cc(Cl)ccc2N1`, the T/C is 120 % of control under setting [8]; 109 % of control under setting [18]; 109 % of control (dose: 50.0 mg/kg/injection, schedule: Q01DX001 (ip), vehicle: saline); 100 % of control under setting [5]; 109 % of control (dose: 100.0 mg/kg/injection, schedule: Q01DX001 (ip), vehicle: saline); 104 % of control under setting [6]. The T/C by setting is: (dose: 200.0 mg/kg/injection, schedule: Q01DX001 (ip), vehicle: saline) 104 % of control; under setting [7], 118 % of control; (dose: 400.0 mg/kg/injection, schedule: Q01DX001 (ip), vehicle: saline) 100 % of control; (dose: 400.0 mg/kg/injection, schedule: Q01DX009 (ip), vehicle: saline with Tween-80) 118 % of control.
`CC#CS(=O)C#CC`: the T/C (dose: 3.12 mg/kg/injection, schedule: Q01DX009 (ip), vehicle: distilled water + alcohol) is 105 % of control and the T/C (dose: 6.25 mg/kg/injection, schedule: Q01DX009 (ip), vehicle: distilled water + alcohol) is 105 % of control.
In the case of `OC(C1CCCCC1)C1CCCCC1Cl` (configuration not stated), the T/C is 102 % of control under setting [12], 102 % of control under setting [13] and 102 % of control under setting [14].
